Values quoted from earlier work as cited in patent US11065250B2, “Solid dosage forms of palbociclib” (PFIZER INC., priority 2015, dated 2021).
Read-outs that look alike come from different tables or passages of the source.

Key:
[1] = low pH (2.1-4.5)

Structure (SMILES): CC(=O)c1c(C)c2cnc(Nc3ccc(N4CCNCC4)cn3)nc2n(C2CCCC2)c1=O [Palbociclib, 6-acetyl-8-cyclopentyl-5-methyl-2-(5-piperazin-1-yl-pyridin-2-ylamino)-8H-pyrido[2,3-d]pyrimidin-7-one]
- pKa (pyridine nitrogen): ~4.1
- pKa (secondary piperazine nitrogen): approximately 7.3
- pKa (pyridine nitrogen) (listed as palbociclib): approximately 4.1
- pKa (secondary piperazine nitrogen) (listed as palbociclib): ~7.3
- solubility in words [1]: water soluble
